These results are taken from patent US9988623B2, “Methods of X-aptamer generation and compositions thereof” (Board of Regents of the University of Texas System, priority 2012, dated 2018).

The target in data set [1] is T1, CD44-HABD (Homo sapiens, UniProt P16070).
T1 construct: DNA encoding CD44-HABD (amino acid residues 20-178) was synthesized and cloned into expression vector pET19b; made in house
Put plainly: Filter binding assay of biotinylated XAs with CD44-HABD. As to the method: Filter binding assay. The equilibrium binding constants of selected XAs for CD44-HABD were determined by a filter binding assay. The biotinylated XAs (1 nM) were incubated with varying concentrations of CD44-HABD in 50 μL of 20 mM Tris, pH 8.0, 150 mM NaCl for 40 min at room temperature and then transferred to a 96-well dot-blot apparatus and filtered under vacuum onto nitrocellulose membranes, which retain the CD44-HABD along with any bound XAs. The amount of biotinylated XA retained at each spot was determined by chemiluminescent detection using the Chemiluminescent Nucleic Acid Detection Module (Thermo Scientific) following the manufacturer's instructions. The chemiluminescent signals were collected on a Chemimager (Alpha Innotech). Image analysis and quantification of spot intensities were performed using ImageJ (version 1.42q). Binding analysis was based on the spot intensities on the nitrocellulose membranes with subtraction of background spot intensity due to the buffer effect from all the data points. Saturation binding curves were generated by using GraphPad Prism with curve fits assuming a single binding site. The NH2 XA column lists KDs for XAs where X=amino-dU. The ADDA XA column lists KDs for XAs where X=ADDA-dU.
The equilibrium binding constants of the small constructs were determined by the filter binding assay. The derived equilibrium binding constants of the above small XA constructs are shown below in Table 4.

The target in data set [2] is T1, CD44-HABD. Put plainly: 1H-NMR titration of CD44-HABD with ADDA (equilibrium dissociation constant). In kind it is binding. As to the method:
ADDA binding to CD44-HABD. CD44-HABD was prepared in the NMR buffer (20 mM Tris, 50 mM NaCl, 5% (v/v) D2O, pH 6.7). ADDA was dissolved in DMSO (1.4 M) as stock solution. The ADDA sample for NMR was prepared in the same buffer (20 mM Tris, 50 mM NaCl, 1.25 mM ADDA, 0.1% (v/v) DMSO, 5% (v/v) D2O, pH 6.7). CD44-HABD (27 μM) with various concentration of ADDA (14 μM, 25 μM, 50 μM, 250 μM and 1250 μM) was also prepared in the same buffer. The ^1H-NMR spectra of CD44-HABD only, ADDA only and CD44-HABD in presence of ADDA were obtained.
The equilibrium dissociation constant of ADDA to CD44-HABD was determined by ^1H-NMR.

The test system of data set [3] is human pancreatic cancer xenograph. Put plainly: Near infrared imaging of IR800dye-labeled thioaptamer in mouse xenograft. In kind it is in vivo. Particulars: mouse with human pancreatic cancer xenograph. An excerpt:
Use of Thioaptamers in vivo.

[4] abbreviates: permonothioated full-length XA, X = ADDA-dU, read-out: KD (nM) ADDA XA.
Setting [5] is: permonothioated full-length XA, X = amino-dU, read-out: KD (nM) NH2 XA.

“And” between values parts separate entries of the source, which are not always exact repeats. Identical values can stand only once. Oligonucleotides are written 5' to 3', each unit as a sugar letter and its base; * is a phosphorothioate linkage, no mark a phosphodiester; rarer units and linkages stand in square brackets, end groups in braces. Plain capitals give the bases only. d = 2'-deoxy (DNA)

T1 sequence (P16070 20-178): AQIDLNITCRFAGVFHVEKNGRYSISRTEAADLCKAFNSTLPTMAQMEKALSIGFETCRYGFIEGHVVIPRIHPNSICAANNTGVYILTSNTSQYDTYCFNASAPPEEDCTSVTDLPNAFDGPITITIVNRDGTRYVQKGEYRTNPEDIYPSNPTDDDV

Consider “XA6: permonothioated X-aptamer to CD44-HABD, SEQ ID NO 17; X = amino-dU or ADDA-dU (DNA TTGGGGCCTGCAAGACGACCNAAACGANGA; phosphorothioate; amino-dU or ADDA-dU modified; (21)..(21) n = X = 5-(aminoethyl-3-acrylimido)- deoxyuridine; (28)..(28) n = X = 5-(aminoethyl-3-acrylimido)- deoxyuridine)”, for which the figures for the Kd with CD44-HABD [1] (setting [4]) and with CD44-HABD [1] (setting [5]) were 150 ± 25.7 nM and 214 ± 31.6 nM, respectively.

As to “XA12: permonothioated X-aptamer to CD44-HABD, SEQ ID NO 23; X = amino-dU or ADDA-dU (DNA NNAAGGCCNGNTAAANGATATCCACTA; phosphorothioate; amino-dU or ADDA-dU modified; (1)..(2) n = X = 5-(aminoethyl-3-acrylimido)- deoxyuridine; (9)..(9) n = X = 5-(aminoethyl-3-acrylimido)- deoxyuridine; (11)..(11) n = X = 5-(aminoethyl-3-acrylimido)- deoxyuridine; (16)..(16) n = X = 5-(aminoethyl-3-acrylimido)- deoxyuridine)”, the Kd came to 879 ± 135 nM with CD44-HABD [1] (setting [4]) and 963 ± 183 nM with CD44-HABD [1] (setting [5]).

For the molecule `CC(=O)N[C@H]1[C@H]([C@H](O)[C@H](O)CO)OC(C(=O)O)=C[C@@H]1O` [ADDA, N-acetyl-2,3-dehydro-2-deoxyneuraminic acid], the Kd at CD44-HABD [2] (1H-NMR peak 7.7925 ppm, read-out: KD) was 3080 µM; at CD44-HABD [2] (1H-NMR peak 7.9025 ppm, read-out: KD) it was 1440 µM; at CD44-HABD [2] (1H-NMR peak 7.9225 ppm, read-out: KD), 1720 µM; at CD44-HABD [2] (1H-NMR peak 7.9375 ppm, read-out: KD) it was 1920 µM; on CD44-HABD [2] (1H-NMR peak 7.9575 ppm, read-out: KD), 1710 µM; on CD44-HABD [2] (1H-NMR peak 7.9925 ppm, read-out: KD) it was 3430 µM. Further, the Kd at CD44-HABD [2] (average over the six selected 1H-NMR peaks, read-out: Average KD) was 2220 µM and ~2000 µM.

As to “XA10: permonothioated X-aptamer to CD44-HABD, SEQ ID NO 21; X = amino-dU or ADDA-dU (DNA dT*dT*dG*dG*dG*dG*dC*dC*dC*dA*dG*dT*dA*dG*dG*dT*dA*dA*dC*dC*dG*dG*dG*dG*dA*dC*dA*dG; further chemistry not given here)”, in the data set with CD44-HABD [1] (setting [5]), the Kd is 450 ± 180 nM.

For “1 (DNA AAGGGAACCAAGGACACTAC; DNA, backbone not given here; tested as phosphodiester and as thiophosphate form) [Motif 1]”, the Kd in the data set with CD44-HABD [1] (truncated motif without X, phosphate backbone, read-out: Dissociation constant (nM), phosphoaptamer form) was 10.3 ± 1.3 nM; in the data set with CD44-HABD [1] (truncated motif without X, thiophosphate backbone, read-out: Dissociation constant (nM), thioaptamer form), 15 ± 2 nM.

For “XA3: permonothioated X-aptamer to CD44-HABD, SEQ ID NO 14; X = amino-dU or ADDA-dU (DNA CCAAGGCCTGCAAGGGAACCAAGTCCANTA; phosphorothioate; amino-dU or ADDA-dU modified; (28)..(28) n = X = 5-(aminoethyl-3-acrylimido)- deoxyuridine)”, the values for the Kd in the data set with CD44-HABD [1] (setting [4]) and with CD44-HABD [1] (setting [5]) were 140 ± 16.8 nM and 111 ± 18.5 nM, respectively.

For “XA2: permonothioated X-aptamer to CD44-HABD, SEQ ID NO 13; X = amino-dU or ADDA-dU (DNA NGCAGATCTGCAAGGGAACCAAGGACACTA; phosphorothioate; amino-dU or ADDA-dU modified; (1)..(1) n = X = 5-(aminoethyl-3-acrylimido)- deoxyuridine)”, the Kd with CD44-HABD [1] (setting [4]) turned out to be 78.3 ± 18.1 nM; in the data set with CD44-HABD [1] (setting [5]), 55.5 ± 13.4 nM.

In the case of “XA7: permonothioated X-aptamer to CD44-HABD, SEQ ID NO 18; X = amino-dU or ADDA-dU (DNA NNAAGACGCANTAANGAACCAAGGACGTGA; phosphorothioate; amino-dU or ADDA-dU modified; (1)..(2) n = X = 5-(aminoethyl-3-acrylimido)- deoxyuridine; (11)..(11) n = X = 5-(aminoethyl-3-acrylimido)- deoxyuridine; (15)..(15) n = X = 5-(aminoethyl-3-acrylimido)- deoxyuridine)”, the Kd with CD44-HABD [1] (setting [4]) was 116 ± 20.7 nM; in the data set with CD44-HABD [1] (setting [5]) it was 306 ± 69.3 nM.

With “XA13: permonothioated X-aptamer to CD44-HABD, SEQ ID NO 24; X = amino-dU or ADDA-dU (DNA NGCAGATCTGCAAGGGAAAGATAGACACAG; phosphorothioate; amino-dU or ADDA-dU modified; (1)..(1) n = X = 5-(aminoethyl-3-acrylimido)- deoxyuridine)”, the figures for the Kd with CD44-HABD [1] (setting [4]) and in the data set with CD44-HABD [1] (setting [5]) were 312 ± 68.5 nM and 1380 ± 237 nM, respectively.

On to “XA11: permonothioated X-aptamer to CD44-HABD, SEQ ID NO 22; X = amino-dU or ADDA-dU (DNA TTGGGACGTAAGTAANGGGGGACANGA; phosphorothioate; amino-dU or ADDA-dU modified; (16)..(16) n = X = 5-(aminoethyl-3-acrylimido)- deoxyuridine; (25)..(25) n = X = 5-(aminoethyl-3-acrylimido)- deoxyuridine)”, for which the Kd in the data set with CD44-HABD [1] (setting [4]) was determined as 1090 ± 390 nM; in the data set with CD44-HABD [1] (setting [5]), 846 ± 151 nM.

On to “XA8: permonothioated X-aptamer to CD44-HABD, SEQ ID NO 19; X = amino-dU or ADDA-dU (DNA CCAAGATCNGNAAGGTANCCGGGGACNG; phosphorothioate; amino-dU or ADDA-dU modified; (9)..(9) n = X = 5-(aminoethyl-3-acrylimido)- deoxyuridine; (11)..(11) n = X = 5-(aminoethyl-3-acrylimido)- deoxyuridine; (18)..(18) n = X = 5-(aminoethyl-3-acrylimido)- deoxyuridine; (27)..(27) n = X = 5-(aminoethyl-3-acrylimido)- deoxyuridine)”, for which the results for the Kd in the data set with CD44-HABD [1] (setting [4]) and in the data set with CD44-HABD [1] (setting [5]) were 274 ± 54.3 nM and 463 ± 82.4 nM, respectively.

B1: ESTA-1: ESTA-1 thioaptamer sequence (SEQ. ID. 32), IRdye 800-labelled, gold nanoparticle (FIG. 16) (nucleic acid)
DNA: CGCTCGGATCGATAAGCTTCGATCCCACTCTCCCGTTCACTTCTCCTCACGTCACGGATCCTCTAGAGCACTG
modifications: Thioaptamer, thioate positions not given here, IRdye 800 label, gold nanoparticle conjugate
B1: the “accumulation in tumor (near infrared image)” value in data set [3] is on record as “accumulates in the tumor”.
